In US20020172990A1, “Cyclin dependent kinase 5 phosphorylation of disabled 1 protein” (priority 2002, published 2002):

System: Dab1 phosphorylation in embryonic neurons
Test: Reelin stimulation of embryonic neurons, Dab1 immunoprecipitation and Western blot
Assay type: cell-based, mouse
Method: Stimulation of embryonic neurons with purified Reelin has been described previously (Keshvara et al., J Biol Chem 276:16008-16014, 2001). Briefly, neurons obtained by trituration of embryonic brains were treated either with purified recombinant Reelin or with a control supernatant for 15 minutes at 37° C. After incubation neurons were either snap frozen or lysed immediately. Reelin-treated neuronal pellets were lysed in cell lysis buffer (25 mM Tris-HCl, 1% Nonidet P-40, 150 mM NaCl, 5 mM EDTA, 1 mM sodium orthovanadate, 20 mM sodium fluoride, and 20 μg/ml each of aprotinin and leupeptin). Whole brains were also homogenized in this lysis buffer. Cell lysates as well as brain homogenates were clarified by centrifugation at 10,000× g at 4° C. for 20 min.
Cell or brain lysates were incubated with anti-Cdk5 or anti-Dab1 antibodies at 4° C. for 2 hr. Immune complexes were collected with protein G-agarose beads (Pierce) and washed three times with cell lysis buffer. Immunoprecipitates were boiled in SDS sample buffer, separated by SDS-PAGE, and blotted to nitrocellulose membranes. Nitrocellulose membranes were blocked with 5% non-fat dry milk in TBST (50 mM Tris, pH 7.4, 150 mM NaCl, 1% Tween 20) for 1 hr at room temperature. The following antibodies were used for various immunoblots: anti-PSer491 (1:1000), anti-Cdk5 (1:2000), anti-PY198 (1:100), 4G10 (1:2000) (Upstate Biotechnology, Lake Placid, N.Y.), and anti-Dab1 (CT38, 1:5000). All dilutions were made in blocking solution, and incubations were carried out at room temperature for one hour. The membranes were washed in TBST and incubated with horseradish peroxidase-conjugated secondary antibody (1:10,000) for 1 hr. Detection was carried out using Super Signal West Dura Extended Duration Substrate (Pierce).
Since the accumulation of hypophosphorylated Dab1 in Cdk5^−/− neurons implies that Reelin signaling is defective, we sought to determine whether the defect in Reelin signaling is intrinsic to Cdk5-deficient neurons or whether it arises as an indirect consequence of the ectopic location of these neurons. […]

Substance: Reelin: Large secreted glycoprotein; purified recombinant Reelin used to stimulate embryonic neurons
- Tyrosine phosphorylation of Dab1 (neurons from E16.5 Cdk5-/- embryos, Reelin-enriched DMEM vs DMEM alone, 4G10 anti-phosphotyrosine blot): sharp increase in tyrosine phosphorylation of Dab1
- Tyrosine phosphorylation of Dab1 (neurons from E16.5 reeler brains, exogenous Reelin 15 minutes at 37° C.): sharp increase in tyrosine phosphorylation of Dab1
- Serine 491 phosphorylation of Dab1 (neurons from E16.5 reeler brains, exogenous Reelin 15 minutes at 37° C., anti-PSer491 blot): did not cause any noticeable change
